Laboratory results from PubChem BioAssay (NCI).
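Assay format: 96-well plates, 48-hour exposure. TGI: total growth inhibition.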

What was measured:
Assay in all cases: growth of human tumour cells (NCI), 48 h
NCI-H460 lung = test system: NCI-H460 lung
OVCAR-8 ovarian = test system: OVCAR-8 ovarian
UACC-62 melanoma = test system: UACC-62 melanoma
T-47D breast = test system: T-47D breast
EKVX NSCLC = test system: EKVX NSCLC
SK-MEL-2 melanoma = test system: SK-MEL-2 melanoma
MDA-MB-231 breast = test system: MDA-MB-231 breast
NCI-H226 lung = test system: NCI-H226 lung
A549 NSCLC = test system: A549 NSCLC
U251 CNS = test system: U251 CNS
NCI-H522 lung = test system: NCI-H522 lung
SNB-19 CNS = test system: SNB-19 CNS
DU-145 prostate = test system: DU-145 prostate
NCI-H23 lung = test system: NCI-H23 lung
SK-MEL-5 melanoma = test system: SK-MEL-5 melanoma
SF-539 CNS = test system: SF-539 CNS
CCRF-CEM leukemia = test system: CCRF-CEM leukemia
A498 renal = test system: A498 renal
OVCAR-5 ovarian = test system: OVCAR-5 ovarian
MALME-3M melanoma = test system: MALME-3M melanoma
MOLT-4 leukemia = test system: MOLT-4 leukemia
HCT-116 colon = test system: HCT-116 colon
HT29 colon = test system: HT29 colon
RXF 393 renal = test system: RXF 393 renal
NCI/ADR-RES ovarian = test system: NCI/ADR-RES ovarian
HCT-15 colon = test system: HCT-15 colon
COLO 205 colon = test system: COLO 205 colon
SF-268 CNS = test system: SF-268 CNS
HOP-92 NSCLC = test system: HOP-92 NSCLC
SK-MEL-28 melanoma = test system: SK-MEL-28 melanoma
SF-295 CNS = test system: SF-295 CNS
UACC-257 melanoma = test system: UACC-257 melanoma
SR leukemia = test system: SR leukemia
SNB-75 CNS = test system: SNB-75 CNS
TK-10 renal = test system: TK-10 renal
786-0 renal = test system: 786-0 renal
CAKI-1 renal = test system: CAKI-1 renal
IGROV1 ovarian = test system: IGROV1 ovarian
M14 melanoma = test system: M14 melanoma
OVCAR-3 ovarian = test system: OVCAR-3 ovarian
ACHN renal = test system: ACHN renal
KM12 colon = test system: KM12 colon
MCF7 breast = test system: MCF7 breast
HL-60(TB) leukemia = test system: HL-60(TB) leukemia
MDA-MB-435 = test system: MDA-MB-435
SN12C renal = test system: SN12C renal
BT-549 breast = test system: BT-549 breast
SK-OV-3 ovarian = test system: SK-OV-3 ovarian
HS 578T breast = test system: HS 578T breast
SW-620 colon = test system: SW-620 colon
LOX IMVI melanoma = test system: LOX IMVI melanoma
OVCAR-4 ovarian = test system: OVCAR-4 ovarian
UO-31 renal = test system: UO-31 renal
HOP-62 NSCLC = test system: HOP-62 NSCLC
PC-3 prostate = test system: PC-3 prostate
K-562 leukemia = test system: K-562 leukemia
MDA-N = test system: MDA-N

Cc1cc(C)c2c(=O)n(CC(O)CN3CCN(CCOCCO)CC3)sc2n1 (configuration not stated)
TGI (NCI-H460 lung): 39 µM
TGI (OVCAR-8 ovarian): 39.9 µM
TGI (UACC-62 melanoma): 32.7 µM
TGI (T-47D breast): 47.2 µM
TGI (EKVX NSCLC): 35.3 µM
TGI (SK-MEL-2 melanoma): 39.9 µM
TGI (MDA-MB-231 breast): 37.6 µM
TGI (NCI-H226 lung): > 100 µM
TGI (A549 NSCLC): > 100 µM
TGI (U251 CNS): 36.3 µM
TGI (NCI-H522 lung): 32.1 µM
TGI (SNB-19 CNS): > 100 µM
TGI (DU-145 prostate): 48.2 µM
TGI (NCI-H23 lung): 30.3 µM
TGI (SK-MEL-5 melanoma): 34.5 µM
TGI (SF-539 CNS): 38.4 µM
TGI (CCRF-CEM leukemia): > 100 µM
TGI (A498 renal): 38.9 µM
TGI (OVCAR-5 ovarian): 34.8 µM
TGI (MALME-3M melanoma): 35.4 µM
TGI (MOLT-4 leukemia): 73.5 µM
TGI (HCT-116 colon): 30.8 µM
TGI (HT29 colon): 39.6 µM
TGI (RXF 393 renal): 21 µM
TGI (NCI/ADR-RES ovarian): > 100 µM
TGI (HCT-15 colon): > 100 µM
TGI (COLO 205 colon): 34.1 µM
TGI (SF-268 CNS): 39.8 µM
TGI (HOP-92 NSCLC): 40.6 µM
TGI (SK-MEL-28 melanoma): 35.7 µM
TGI (SF-295 CNS): > 100 µM
TGI (UACC-257 melanoma): 24.6 µM
TGI (SR leukemia): > 100 µM
TGI (SNB-75 CNS): 5.78 µM
TGI (TK-10 renal): 31.3 µM
TGI (786-0 renal): 30.6 µM
TGI (CAKI-1 renal): > 100 µM
TGI (IGROV1 ovarian): > 100 µM
TGI (M14 melanoma): 33.5 µM
TGI (OVCAR-3 ovarian): 41.3 µM
TGI (ACHN renal): 35 µM
TGI (KM12 colon): 48 µM
TGI (MCF7 breast): 34.2 µM
TGI (HL-60(TB) leukemia): 54.4 µM
TGI (MDA-MB-435): 32.8 µM
TGI (SN12C renal): 37.1 µM
TGI (BT-549 breast): 31.1 µM
TGI (SK-OV-3 ovarian): 60.7 µM
TGI (HS 578T breast): 77.8 µM
TGI (SW-620 colon): > 100 µM
TGI (LOX IMVI melanoma): 37.1 µM
TGI (OVCAR-4 ovarian): 34.5 µM
TGI (UO-31 renal): 47.8 µM
TGI (HOP-62 NSCLC): 70.6 µM
TGI (PC-3 prostate): 40.7 µM
TGI (K-562 leukemia): > 100 µM
TGI (MDA-N): 29.2 µM

COC(=O)c1nn2ccc3ccccc3c2c1C(=O)OC
TGI (NCI-H460 lung): > 100 µM
TGI (OVCAR-8 ovarian): > 100 µM
TGI (UACC-62 melanoma): > 100 µM
TGI (T-47D breast): > 100 µM
TGI (EKVX NSCLC): > 100 µM
TGI (SK-MEL-2 melanoma): > 100 µM
TGI (MDA-MB-231 breast): > 100 µM
TGI (NCI-H226 lung): > 100 µM
TGI (A549 NSCLC): > 100 µM
TGI (U251 CNS): > 100 µM
TGI (NCI-H522 lung): > 100 µM
TGI (SNB-19 CNS): > 100 µM
TGI (DU-145 prostate): > 100 µM
TGI (NCI-H23 lung): > 100 µM
TGI (SK-MEL-5 melanoma): > 100 µM
TGI (SF-539 CNS): > 100 µM
TGI (A498 renal): > 100 µM
TGI (OVCAR-5 ovarian): > 100 µM
TGI (MALME-3M melanoma): > 100 µM
TGI (MOLT-4 leukemia): > 100 µM
TGI (HCT-116 colon): > 100 µM
TGI (HT29 colon): > 100 µM
TGI (RXF 393 renal): > 100 µM
TGI (NCI/ADR-RES ovarian): > 100 µM
TGI (HCT-15 colon): > 100 µM
TGI (COLO 205 colon): > 100 µM
TGI (SF-268 CNS): > 100 µM
TGI (HOP-92 NSCLC): > 100 µM
TGI (SK-MEL-28 melanoma): > 100 µM
TGI (SF-295 CNS): > 100 µM
TGI (UACC-257 melanoma): > 100 µM
TGI (SR leukemia): > 100 µM
TGI (SNB-75 CNS): > 100 µM
TGI (TK-10 renal): > 100 µM
TGI (786-0 renal): > 100 µM
TGI (CAKI-1 renal): > 100 µM
TGI (IGROV1 ovarian): > 100 µM
TGI (M14 melanoma): > 100 µM
TGI (ACHN renal): > 100 µM
TGI (KM12 colon): > 100 µM
TGI (MCF7 breast): > 100 µM
TGI (HL-60(TB) leukemia): > 100 µM
TGI (MDA-MB-435): > 100 µM
TGI (SN12C renal): > 100 µM
TGI (BT-549 breast): > 100 µM
TGI (SK-OV-3 ovarian): > 100 µM
TGI (HS 578T breast): > 100 µM
TGI (SW-620 colon): > 100 µM
TGI (LOX IMVI melanoma): > 100 µM
TGI (OVCAR-4 ovarian): > 100 µM
TGI (UO-31 renal): > 100 µM
TGI (HOP-62 NSCLC): > 100 µM
TGI (PC-3 prostate): > 100 µM
TGI (K-562 leukemia): > 100 µM
TGI (MDA-N): > 100 µM
